This experiment has as its target [35S]-TBPS binding, rat brain cortical membranes. Put plainly: Steroid inhibition of TBPS binding ([35S]-TBPS radioligand displacement). The note with it: 3 nM [35S]-TBPS, 5 μM GABA. On the procedure:
TBPS binding assays using rat brain cortical membranes in the presence of 5 μM GABA has been described (Gee et al, J. Pharmacol. Exp. Then 1987, 241, 346-353; Hawkinson et al, Mol. Pharmacol. 1994, 46, 977-985; Lewin, A. H et al., Mol. Pharmacol. 1989, 35, 189-194).
Briefly, cortices are rapidly removed following decapitation of carbon dioxide-anesthetized Sprague-Dawley rats (200-250 g). The cortices are homogenized in 10 volumes of […] using a glass/teflon homogenizer and centrifuged at 1500×g for 10 min at 4° C. The resultant supernatants are centrifuged at 10,000×g for 20 min at 4° C. to obtain the P2 pellets. The P2 pellets are resuspended in 200 mM NaCl/50 mM Na—K phosphate pH 7.4 buffer and centrifuged at 10,000×g for 10 min at 4° C. This washing procedure is repeated twice and the pellets are resuspended in 10 volumes of buffer. Aliquots (100 μL) of the membrane suspensions are incubated with 3 nM [^35S]-TBPS and 5 μL aliquots of test drug dissolved in dimethyl sulfoxide (DMSO) (final 0.5%) in the presence of 5 μM GABA. The incubation is brought to a final volume of 1.0 mL with buffer. […] Following a 90 min incubation at room temp, the assays are terminated by filtration through glass fiber filters (Schleicher and Schuell No. 32) using a cell harvester (Braudel) and rinsed three times with ice-cold buffer. Filter bound radioactivity is measured by liquid scintillation spectrometry. Non-linear curve fitting of the overall data for each drug averaged for each concentration is done using Prism (GraphPad).
Various compounds are or can be screened to determine their potential as modulators of [^35S]-TBPS binding in vitro. These assays are or can be performed in accordance with the above discussed procedures.
In general terms: Displacement assays read how much labelled ligand stays bound in the presence of the test substance.
With `C[C@@]1(O)CC[C@@]2(C)[C@H](CC[C@@H]3[C@@H]2CC[C@]2(C)[C@@H](C(=O)CN4CCOCC4)CC[C@@H]32)C1` [Compound 43, 1-((3R,5R,8R,9S,10S,13S,14S,17S)-3-hydroxy-3,10,13-trimethylhexadecahydro-1H-cyclopenta[a]phenanthren-17-yl)-2-morpholinoethanone], the IC50 (usually the concentration that gives 50% inhibition) was 0.1 to 0.5 µM.

In turn, `CC(C(=O)[C@H]1CC[C@H]2[C@@H]3CC[C@@H]4C[C@](C)(O)CC[C@]4(C)[C@H]3CC[C@]12C)n1nc2ccccc2n1` (stereo in doubt) [Compound 61, (S)-2-(2H-benzo[d][1,2,3]triazol-2-yl)-1-((3R,5R,8R,9S,10S,13S,14S,17S)-3-hydroxy-3,10,13-trimethylhexadecahydro-1H-cyclopenta[a]phenanthren-17-yl)propan-1-one] showed an IC50 of 0.1 to 0.5 µM.

Regarding `CSc1ccc2nnn(CC(=O)[C@H]3CC[C@H]4[C@@H]5CC[C@H]6C[C@](C)(O)CC[C@]6(C)[C@H]5CC[C@]34C)c2c1` [Compound 248], the IC50 was under 0.01 µM.

Consider `C[C@@]1(O)CC[C@@]2(C)[C@@H](CC[C@@H]3[C@@H]2CC[C@]2(C)[C@@H](C(=O)Cn4ncc5cc(F)ccc54)CC[C@@H]32)C1` [Compound 240], for which the concentration for half-maximal inhibition (IC50) lay in the range of 0.01 to 0.05 µM.

In the case of `C[C@@H](C(=O)[C@H]1CC[C@H]2[C@@H]3CC[C@H]4C[C@](C)(O)CC[C@]4(C)[C@H]3CC[C@]12C)n1cc(C#N)cn1` [Compound 81, 1-((S)-1-((3R,5S,8R,9S,10S,13S,14S,17S)-3-hydroxy-3,10,13-trimethylhexadecahydro-1H-cyclopenta[a]phenanthren-17-yl)-1-oxopropan-2-yl)-1H-pyrazole-4-carbonitrile], the IC50 was in the range of 0.01 to 0.05 µM.

Regarding `C[C@H](C(=O)[C@H]1CC[C@H]2[C@@H]3CC[C@@H]4C[C@](C)(O)CC[C@]4(C)[C@H]3CC[C@]12C)n1nnc2ccccc21` [Compound 62, (R)-2-(1H-benzo[d][1,2,3]triazol-1-yl)-1-((3R,5R,8R,9S,10S,13S,14S,17S)-3-hydroxy-3,10,13-trimethylhexadecahydro-1H-cyclopenta[a]phenanthren-17-yl)propan-1-one], the 50% inhibitory concentration (IC50) fell in the range of 0.1 to 0.5 µM.

In turn, `C[C@H](C(=O)[C@H]1CC[C@H]2[C@@H]3CC[C@H]4C[C@](C)(O)CC[C@]4(C)[C@H]3CC[C@]12C)n1ccnn1` [Compound 92, (R)-1-((3R,5S,8R,9S,10S,13S,14S,17S)-3-hydroxy-3,10,13-trimethylhexadecahydro-1H-cyclopenta[a]phenanthren-17-yl)-2-(1H-1,2,3-triazol-1-yl)propan-1-one] yielded an IC50 of over 0.5 µM.

In the case of `CC(C)(C(=O)[C@H]1CC[C@H]2[C@@H]3CC[C@H]4C[C@](C)(O)CC[C@]4(C)[C@H]3CC[C@]12C)n1nnc2ccccc21` [Compound 102, 2-(1H-benzo[d][1,2,3]triazol-1-yl)-1-((3R,5S,8R,9S,10S,13S,14S,17S)-3-hydroxy-3,10,13-trimethylhexadecahydro-1H-cyclopenta[a]phenanthren-17-yl)-2-methylpropan-1-one], the IC50 is over 0.5 µM.

Take `C[C@@H](C(=O)[C@H]1CC[C@H]2[C@@H]3CC[C@@H]4C[C@](C)(O)CC[C@]4(C)[C@H]3CC[C@]12C)n1ccnn1` [Compound 59, (S)-1-((3R,5R,8R,9S,10S,13S,14S,17S)-3-hydroxy-3,10,13-trimethylhexadecahydro-1H-cyclopenta[a]phenanthren-17-yl)-2-(1H-1,2,3-triazol-1-yl)propan-1-one]: the IC50 lay in the range of 0.1 to 0.5 µM.

For `C[C@H](C(=O)[C@H]1CC[C@H]2[C@@H]3CC[C@@H]4C[C@](C)(O)CC[C@]4(C)[C@H]3CC[C@]12C)n1cc(C#N)cn1` [Compound 72, 1-((R)-1-((3R,5R, 8R, 9S, 10S, 13S, 14S, 17S)-3-hydroxy-3,10,13-trimethylhexadecahydro-1H-cyclopenta[a]phenanthren-17-yl)-1-oxopropan-2-yl)-1H-pyrazole-4-carbonitrile], the IC50 was 0.01 to 0.05 µM.

`C[C@@]1(O)CC[C@@]2(C)[C@@H](CC[C@@H]3[C@@H]2CC[C@]2(C)[C@@H](C(=O)Cc4cccc(F)c4)CC[C@@H]32)C1` [Compound 257] yielded an IC50 of 0.1 to 0.5 µM.

As for `C[C@@]1(O)CC[C@@]2(C)[C@@H](CC[C@@H]3[C@@H]2CC[C@]2(C)[C@@H](C(=O)Cn4cc5cc(F)ccc5n4)CC[C@@H]32)C1` [Compound 239], the IC50 lay within 0.01 to 0.05 µM.

The compound `C[C@H](C(=O)[C@H]1CC[C@H]2[C@@H]3CC[C@H]4C[C@](C)(O)CC[C@]4(C)[C@H]3CC[C@]12C)n1nc2ccccc2n1` [Compound 98, (R)-2-(2H-benzo[d][1,2,3]triazol-2-yl)-1-((3R,5S,8R,9S,10S,13S,14S,17S)-3-hydroxy-3,10,13-trimethylhexadecahydro-1H-cyclopenta[a]phenanthren-17-yl)propan-1-one] came in with a half-inhibitory concentration (IC50) of 0.05 to 0.1 µM.

Compound `C[C@@H](C(=O)[C@H]1CC[C@H]2[C@@H]3CC[C@@H]4C[C@](C)(O)CC[C@]4(C)[C@H]3CC[C@]12C)n1cc(C#N)cn1` [Compound 73, 1-((S)-1-((3R,5R,8R,9S,10S,13S,14S,17S)-3-hydroxy-3,10,13-trimethylhexadecahydro-1H-cyclopenta[a]phenanthren-17-yl)-1-oxopropan-2-yl)-1H-pyrazole-4-carbonitrile] came in with an IC50 of 0.01 to 0.05 µM.

The record behind these values is patent publication US11530237B2, “Compositions and methods for treating CNS disorders” (Sage Therapeutics, Inc., priority 2014, dated 2022).
